Patent US6056958A, “Method of treatment of arterial and venous thromboembolic disorders” (Dupont Pharmaceuticals, priority 1997, dated 2000)
Non-standard residues stand in square brackets, D forms with d. Residues, ends and D or L forms follow the SMILES beside them. 3Amb = NCc1cccc(C(=O)O)c1

Key:
GPIIb/IIIa receptor = target: T1, GPIIb/IIIa receptor (Homo sapiens, UniProt P05106+P08514); assay: GPIIb/IIIa Receptor-Biotinylated Fibrinogen Binding Assay; details: inhibition of fibrinogen binding to purified GPIIb/IIIa
T1 construct: The GPIIb/IIIa receptor was purified from human platelets; from tissue; host or cells: human platelets (purified according to D'Souza et al., J. Biol. Chem. 1990, 265:3440-3446)
T1 sequence (P08514 32-887 limits assumed): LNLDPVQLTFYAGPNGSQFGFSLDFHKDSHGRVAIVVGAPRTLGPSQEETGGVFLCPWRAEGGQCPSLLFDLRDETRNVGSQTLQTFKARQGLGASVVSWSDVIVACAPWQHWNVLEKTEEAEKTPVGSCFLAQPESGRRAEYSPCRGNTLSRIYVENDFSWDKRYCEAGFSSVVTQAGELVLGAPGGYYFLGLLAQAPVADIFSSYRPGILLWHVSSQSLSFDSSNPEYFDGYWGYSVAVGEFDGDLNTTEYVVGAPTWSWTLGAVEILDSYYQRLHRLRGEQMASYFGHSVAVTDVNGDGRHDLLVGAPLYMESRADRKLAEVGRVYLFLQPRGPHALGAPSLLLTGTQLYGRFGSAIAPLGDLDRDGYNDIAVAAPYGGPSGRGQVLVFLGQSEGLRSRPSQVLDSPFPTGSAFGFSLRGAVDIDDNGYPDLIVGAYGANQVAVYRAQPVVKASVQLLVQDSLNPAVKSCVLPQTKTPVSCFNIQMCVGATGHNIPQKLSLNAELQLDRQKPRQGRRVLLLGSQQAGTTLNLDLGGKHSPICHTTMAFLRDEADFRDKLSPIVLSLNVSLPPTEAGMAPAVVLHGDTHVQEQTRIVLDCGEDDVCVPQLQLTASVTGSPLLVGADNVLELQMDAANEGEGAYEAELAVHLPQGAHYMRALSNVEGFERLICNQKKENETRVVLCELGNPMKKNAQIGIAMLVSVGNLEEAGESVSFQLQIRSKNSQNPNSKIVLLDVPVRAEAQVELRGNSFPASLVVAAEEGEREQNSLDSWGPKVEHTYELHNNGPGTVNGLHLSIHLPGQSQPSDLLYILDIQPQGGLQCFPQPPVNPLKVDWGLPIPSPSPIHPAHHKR
T1 sequence (P08514 891-1039 partner limits assumed): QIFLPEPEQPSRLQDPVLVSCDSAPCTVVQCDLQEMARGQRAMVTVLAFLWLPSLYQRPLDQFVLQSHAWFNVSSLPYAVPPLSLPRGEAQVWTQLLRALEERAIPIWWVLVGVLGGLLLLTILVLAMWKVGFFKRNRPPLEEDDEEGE
T1 sequence (P05106 27-788): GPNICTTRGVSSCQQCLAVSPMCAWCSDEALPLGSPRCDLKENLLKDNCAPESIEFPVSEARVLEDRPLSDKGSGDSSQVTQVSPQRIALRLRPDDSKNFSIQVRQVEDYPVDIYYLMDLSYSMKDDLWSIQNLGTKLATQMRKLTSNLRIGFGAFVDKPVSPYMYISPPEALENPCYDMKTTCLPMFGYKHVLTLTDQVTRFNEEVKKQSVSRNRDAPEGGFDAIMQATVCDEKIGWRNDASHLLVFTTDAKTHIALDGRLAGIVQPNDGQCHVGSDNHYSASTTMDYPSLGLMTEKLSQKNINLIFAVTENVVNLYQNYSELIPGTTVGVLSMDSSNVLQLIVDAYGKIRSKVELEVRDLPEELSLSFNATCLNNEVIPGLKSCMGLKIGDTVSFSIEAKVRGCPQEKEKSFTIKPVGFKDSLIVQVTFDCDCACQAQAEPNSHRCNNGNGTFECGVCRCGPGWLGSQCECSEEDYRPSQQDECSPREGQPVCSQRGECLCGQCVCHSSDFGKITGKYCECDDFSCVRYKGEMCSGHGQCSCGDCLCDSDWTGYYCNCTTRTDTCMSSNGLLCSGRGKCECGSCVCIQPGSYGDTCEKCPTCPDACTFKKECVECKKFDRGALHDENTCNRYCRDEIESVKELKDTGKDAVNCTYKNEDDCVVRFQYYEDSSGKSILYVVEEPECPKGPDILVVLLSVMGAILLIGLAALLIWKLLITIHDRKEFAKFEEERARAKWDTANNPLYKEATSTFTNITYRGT
From the text: Compounds may be tested for their ability to block binding of vitronectin to the αv /β3 receptor and to block the binding of fibrinogen to GPIIb/IIIa receptor in the αv /β3 -Biotinylated Vitronectin Binding Assay and GPIIb/IIIa Receptor-Biotinylated Fibrinogen Binding Assay described below.
GPIIb/IIIa Receptor-Biotinylated Fibrinogen Binding Assay
The GPIIb/IIIa receptor was purified from human platelets according to D'Souza et al. (J. Biol. Chem., 1990, 265:3440-3446). The purified GPIIb/IIIa protein was coated on 96 well plates and the competition between test compound and biotinylated fibrinogen for binding to the plate-immobilized GPIIb/IIIa receptor was determined by ELISA as described below. Bound fibrinogen was detected using an avidin-alkaline phosphatase conjugate and paranitrophenol detection at […]. For IC50 determination, test agent was added at various concentrations to plates coated with purified GPIIb/IIIa protein which was followed by the addition of biotinylated fibrinogen. The inhibitory binding constant (Ki) of test agents were calculated under this assay system using standard Michaelis-Menten analysis. The IC50 is the concentration of test substance needed to block 50% of the fibrinogen binding to the GPIIb/IIIa receptor.
The following reagents may be used in the GPIIb/IIIa-fibrinogen binding ELISA:
purified GPIIb/IIIa (148.8 μg/mL);
biotinylated fibrinogen (~1 mg/mL or 3000 nM);
anti-biotin alkaline phosphatase conjugate (Sigma no. A7418);
flat-bottom, high binding, 96-well plates (Costar Cat. no. 3590);
phosphatase substrate (Sigma 104) (40 mg capsules);
bovine serum albumin (BSA) (Sigma no. A3294);
Alkaline Phosphatase buffer--0.1 M glycine-HCl, 1 mM MgCl2.6H2 O, 1 mM ZnCl2, pH 10.4;
Binding buffer--20 mM Tris-HCl, 150 mM NaCl, 1 mM CaCl2.2H2 O, 0.02% NaN3, pH 7.0;
Buffer A--50 mM Tris-HCl, 100 mM NaCl, 2 mM CaCl2.2H2 O, 0.02% NaN3, pH 7.4;
Buffer A+3.5% BSA (Blocking buffer);
Buffer A+0.1% BSA (Dilution buffer);
The following method steps are used in the GPIIb/IIIa-fibrinogen binding ELISA:
Coat plates with GPIIb/IIIa in Binding buffer (125 ng/100 μL/well) overnight at 4° C. (Leave first column uncoated for non-specific binding). Cover and freeze plates at -70° C. until used. Thaw plate 1 hour at room temperature or overnight at 4° C. Discard coating solution and wash once with 200 μL Binding buffer per well. Block plate 2 hours at room temperature on shaker with 200 μl Buffer A+3.5% BSA (Blocking buffer) per well. Discard Blocking buffer and wash once with 200 μL Buffer A+0.1% BSA (Dilution buffer) per well. Pipet 11 μL of test compound (10× the concentration to be tested in Dilution buffer) into duplicate wells. […] Read plate at 405 nm. Blank against non-specific binding (NSB) well. % Inhibition is calculated as 100-(Test Compound Abs/Total Abs)×100.

Platelet Aggregation [1] = assay: Platelet Aggregation Assay (in vitro, ADP-induced, platelet-rich plasma); assay type: cell-based, mongrel dogs or human
Experimental: Platelet Aggregation Assay
Venous blood was obtained from anesthetized mongrel dogs or from healthy human donors who were drug-free and aspirin-free for at least two weeks prior to blood collection. Blood was collected into citrated Vacutainer tubes. The blood was centrifuged for 15 minutes at 150× g (850 RPM in a Sorvall RT6000 Tabletop Centrifuge with H-1000 B rotor) at room temperature, and platelet-rich plasma (PRP) was removed. The remaining blood was centrifuged for 15 minutes at 1500× g ([…]) at room temperature, and platelet-poor plasma (PPP) was removed. Samples were assayed on an aggregometer (PAP-4 Platelet Aggregation Profiler), using PPP as the blank (100% transmittance). 200 μL of PRP (5×10^8 platelets/mL) were added to each micro test tube, and transmittance was set to 0%. 20 μl of ADP (10 μM) was added to each tube, and the aggregation profiles were plotted (% transmittance versus time). Test agent (20 μL) was added at different concentrations prior to the addition of the platelet agonist. Results are expressed as % inhibition of agonist-induced platelet aggregation.

Platelet Aggregation [2] = assay: In Vivo Platelet Aggregation Inhibition in Dog; details: IV

Row | SMILES | IC50 (GPIIb/IIIa receptor) | IC50 (Platelet Aggregation [1]) | Platelet Aggregation Inhibition (%) (Platelet Aggregation [2]; 1 mg/kg) | Platelet Aggregation Inhibition (%) (Platelet Aggregation [2]; 3 mg/kg) | Platelet Aggregation Inhibition (%) (Platelet Aggregation [2]; 10 mg/kg)
1 | N=C(N)NCCC[C@@H]1NC(=O)[C@@H]2CCCN2C(=O)c2cccc(c2)CNC(=O)[C@H](CC(=O)O)NC(=O)CNC1=O [Compound B, cyclo-(Pro-Arg-Gly-Asp-Mamb)] (cyclo(RGD[3Amb]P)) | 1.52 µM | 44 µM | 0-10% | 0-10% | 10-20%
2 | C[C@@H]1NC(=O)c2cccc(c2)CNC(=O)[C@H](CC(=O)O)NC(=O)CNC(=O)[C@H](CCCNC(=N)N)NC1=O [Compound A, cyclo-(Ala-Arg-Gly-Asp-Mamb)] (cyclo(RGD[3Amb]A)) | 0.408 µM | 18 µM | 0-10% | 10-20% | 30-50%
